Read-outs that look alike come from different tables or passages of the source.
Test system: HCV pseudoparticles, genotype 1a (H77C) E1 and E2 envelope
Test: microbe, parasite or virus in culture
Format: cell-based, HCV genotype 1a (H77C isolate)
Settings: Hepatitis C virus, Huh-7, 48 h, HCV pseudoparticles 1a (H77C), Huh7 cells, luciferase 2 days after infection
[1] = read-out: EC50 (nM) 1a (H77C), Table 1a, class
[2] = read-out: EC50 (nM) 1a (H77C), Table 1a
[3] = read-out: EC50 (nM) 1a (H77C), Table 1b, class
[4] = read-out: EC50 (nM) 1a (H77C), Table 1b

Compound `O=C1NCCNCCNc2nc(nc(OCC(F)(F)F)n2)Nc2ccc1cc2` [Example 0001] has an EC50 [1] of 1000 to 5000 nM and an EC50 [2] of 4200 nM.

With `O=C1NCCCCCCCCNc2nc(nc(OCC(F)(F)F)n2)Nc2ccc1cc2` [Example 0002] the EC50 [1] was 0.1 to 100 nM.

Work on `O=C1NCCCCCCCCCCNc2nc(nc(OCC(F)(F)F)n2)Nc2ccc1cc2` [Example 0003] yielded an EC50 [1] of 100 to 1000 nM and an EC50 [2] of 101 nM.

In the case of `O=C1NCCCOCCCCOCCCNc2nc(nc(OCC(F)(F)F)n2)Nc2ccc1cc2` [Example 0004], the EC50 [1] is reported as 0.1 to 100 nM and the EC50 [2] is reported as 48.4 nM.

In the case of `CC(=O)N1CCNC(=O)c2ccc(cc2)Nc2nc(nc(OCC(F)(F)F)n2)NCC1` [Example 0005], the EC50 [1] is reported as 1000 to 5000 nM.

With `O=C1NCCCCNC(=O)C2(CC2)Nc2nc(nc(OCC(F)(F)F)n2)Nc2ccc1cc2` [Example 0006] the EC50 [1] was 1000 to 5000 nM.

`O=C1N[C@H]2CNC[C@@H]2C(=O)NCCCCCCOc2ccc(cc2)CNc2nc(nc(OCC(F)(F)F)n2)Nc2ccc1cc2` [Example 0007] was tested, and the EC50 [1] was 0.1 to 100 nM and the EC50 [2] was 8.31 nM.

Compound `CN(C)C(N1C[C@@H]2NC(=O)c3ccc(cc3)Nc3nc(nc(OCC(F)(F)F)n3)NCc3ccc(cc3)OCCCCCCNC(=O)[C@H]2C1)=[N+](C)C` [Example 0008] has an EC50 [1] of 0.1 to 100 nM.

In the case of `CC(C)(C)OC(=O)N1CCN(CC2CNC(=O)c3ccc(cc3)Nc3nc(nc(OCC(F)(F)F)n3)NCc3ccc(cc3)OC/C=C/CO2)CC1` (stereo not shown) [Example 0009], the EC50 [1] is reported as 100 to 1000 nM.

For `O=C1NCC(CN2CCNCC2)OC/C=C/COc2ccc(cc2)CNc2nc(nc(OCC(F)(F)F)n2)Nc2ccc1cc2` (stereo not shown) [Example 0010], the EC50 [1] was 1000 to 5000 nM.

`O=C1NC(C2CCCNC2)C(=O)NCCCCCCOc2ccc(cc2)CNc2nc(nc(OCC(F)(F)F)n2)Nc2ccc1cc2` (stereo not shown) [Example 0011] showed an EC50 [1] of 0.1 to 100 nM and an EC50 [2] of 62.8 nM.

Work on `O=C1NCCCCCCCCCCCCNC(=O)c2ccc(cc2)Nc2nc(nc(OCC(F)(F)F)n2)NCc2ccc1cc2` [Example 0034] yielded an EC50 [1] of 1000 to 5000 nM.

Work on `O=C1NCCCOCCOCCOCCCNC(=O)c2ccc(cc2)Nc2nc(nc(OCC(F)(F)F)n2)NCc2ccc1cc2` [Example 0036] yielded an EC50 [1] of 1000 to 5000 nM.

Compound `O=C1NCCCCCCCCCNC(=O)c2ccc(cc2)Nc2nc(nc(OCC(F)(F)F)n2)NCc2ccc1cc2` [Example 0037] has an EC50 [1] of 100 to 1000 nM.

Compound `O=C1NCCCCCCCCCCCNC(=O)c2ccc(cc2)Nc2nc(nc(OCC(F)(F)F)n2)NCc2ccc1cc2` [Example 0038] has an EC50 [1] of 100 to 1000 nM and an EC50 [2] of 840 nM.

In the case of `O=C1CCCCCCCCC(=O)NCc2ccc(cc2)Nc2nc(nc(OCC(F)(F)F)n2)NCc2ccc(cc2)CN1` [Example 0064], the EC50 [1] is reported as 100 to 1000 nM and the EC50 [2] is reported as 407 nM.

`O=C1NS(=O)(=O)C/C=C/CCOc2ccc(cc2)CNc2nc(nc(OCC(F)(F)F)n2)Nc2ccc1cc2` [Example 3004] gave an EC50 [1] of 1000 to 5000 nM and an EC50 [2] of 2940 nM.

In the case of `O=C1NS(=O)(=O)C/C=C/CCCCOc2ccc(cc2)CNc2nc(nc(OCC(F)(F)F)n2)Nc2ccc1cc2` [Example 3006], the EC50 [1] is reported as 1000 to 5000 nM.

`O=C1CCNC(=O)c2ccc(cc2)Nc2nc(nc(OCC(F)(F)F)n2)NCc2ccc(cc2)OC/C=C/CS(=O)(=O)N1` [Example 3008] showed an EC50 [1] of 100 to 1000 nM.

Work on `O=C1CCNC(=O)c2ccc(cc2)Nc2nc(nc(OCC(F)(F)F)n2)NCc2ccc(cc2)OC/C=C\CS(=O)(=O)N1` [Example 3009] yielded an EC50 [1] of 100 to 1000 nM.

Compound `O=C1NCCCNCCCOc2ccc(cc2)C2(CC2)Nc2nc(nc(OCC(F)(F)F)n2)Nc2ccc1cc2` [Example 5001] has an EC50 [3] of 0.1 to 100 nM.

`CCOC(=O)N1CCCNC(=O)c2ccc(cc2)Nc2nc(nc(OCC(F)(F)F)n2)NC2(CC2)c2ccc(cc2)OCCC1` [Example 5002] gave an EC50 [3] of 0.1 to 100 nM.

`CCC(=O)N1CCCCNC(=O)c2ccc(cc2)Nc2nc(nc(OCC(F)(F)F)n2)NC2(CC2)c2ccc(cc2)OCCC1` [Example 5005] gave an EC50 [3] of 0.1 to 100 nM.

For `CC(C)(C)NC(=O)N1CCCOc2ccc(cc2)CNc2nc(nc(OCC(F)(F)F)n2)Nc2ccc(cc2)C(=O)NCC1` [Example 6001], the EC50 [3] was 0.1 to 100 nM.

`CC(C)NC(=O)N1CCCOc2ccc(cc2)CNc2nc(nc(OCC(F)(F)F)n2)Nc2ccc(cc2)C(=O)NCC1` [Example 6003] was tested, and the EC50 [3] was 0.1 to 100 nM.

`CC(C)OC(=O)N1CCCOc2ccc(cc2)CNc2nc(nc(OCC(F)(F)F)n2)Nc2ccc(cc2)C(=O)NCC1` [Example 6004] gave an EC50 [3] of 0.1 to 100 nM.

For `CCOC(=O)N1CCCOc2ccc(cc2)CNc2nc(nc(OCC(F)(F)F)n2)Nc2ccc(cc2)C(=O)NCC1` [Example 6005], the EC50 [3] was 0.1 to 100 nM.

`CCC(=O)N1CCCOc2ccc(cc2)CNc2nc(nc(OCC(F)(F)F)n2)Nc2ccc(cc2)C(=O)NCC1` [Example 6007] gave an EC50 [3] of 0.1 to 100 nM.

`CC(C)C(=O)N1CCCOc2ccc(cc2)CNc2nc(nc(OCC(F)(F)F)n2)Nc2ccc(cc2)C(=O)NCC1` [Example 6008] gave an EC50 [3] of 0.1 to 100 nM.

Compound `CC(C)(C)NC(=O)N1CCCNC(=O)c2ccc(cc2)Nc2nc(nc(OCC(F)(F)F)n2)NCc2ccc(cc2)OCCC1` [Example 6013] has an EC50 [3] of 0.1 to 100 nM.

For `CCOC(=O)N1CCCOc2ccc(cc2)CNc2nc(nc(OCC(F)(F)F)n2)Nc2ccc(cc2)C(=O)NCC(C)(C)C1` [Example 6033], the EC50 [3] was 0.1 to 100 nM.

Compound `CCCN1CCCOc2ccc(cc2)CNc2nc(nc(OCC(F)(F)F)n2)Nc2ccc(cc2)C(=O)NCC(C)(C)C1` [Example 6039] has an EC50 [3] of 0.1 to 100 nM.

`O=C1NCCCCNCCCNc2nc(nc(OCC(F)(F)F)n2)Nc2ccc1cc2` [Example 7001] was tested, and the EC50 [3] was 1000 to 5000 nM.

`O=C1NCCCCCNCCNc2nc(nc(OCC(F)(F)F)n2)Nc2ccc1cc2` [Example 8002] gave an EC50 [3] of 1000 to 5000 nM and an EC50 [4] greater than 50000 nM.

`O=C1NCCCNCCCCCCCCNc2nc(nc(OCC(F)(F)F)n2)Nc2ccc1cc2` [Example 9001] was tested, and the EC50 [3] was 100 to 1000 nM and the EC50 [4] was 243 nM.

With `CC(C)(C)OC(=O)N1CCCCCCCCNc2nc(nc(OCC(F)(F)F)n2)Nc2ccc(cc2)C(=O)NCCC1` [Example 9002] the EC50 [3] was 0.1 to 100 nM.
